The values below come from patent US10752584B2 (EMORY UNIVERSITY, priority 2016, dated 2020).

Read-outs that look alike come from different tables or passages of the source. Where only a bound is given, the exact number is not on record here.

Type in all cases: cell-based
The nature of data set [1]: Cellular toxicity assay in CEM cells. Conditions: human, read-out: Cytotoxicity. As to the method:
(§1) The toxicity of the compounds was assessed in Vero, human PBM, CEM (human lymphoblastoid), MT-2, and HepG2 cells, as described previously (see Schinazi R. F., Sommadossi J.-P., Saalmann V., Cannon D. L., Xie M.-Y., Hart G. C., Smith G. A. & Hahn E. F. Antimicrob. Agents Chemother. 1990, 34, 1061-67). Cycloheximide was included as positive cytotoxic control, and untreated cells exposed to solvent were included as negative controls. The cytotoxicity IC50 was obtained from the concentration-response curve using the median effective method described previously (see Chou T.-C. & Talalay P. Adv. Enzyme Regul. 1984, 22, 27-55; Belen'kii M. S. & Schinazi R. F. Antiviral Res. 1994, 25, 1-11).

The nature of data set [2]: Cellular toxicity assay in HepG2 cells. The conditions noted are these: human, read-out: Cytotoxicity. As to the method: as §1
Data set [3] is described as follows: Cellular toxicity assay in human PBM cells. The conditions noted are these: human, read-out: Cytotoxicity. Here is the method: as §1
A further data set has as its system wild type HBV. Kind of data set: Anti-HBV assay in AD-38 cell line. The conditions noted are these: Hepatitis B virus; for EC50: read-out: Anti-HBV activity EC50; for EC90: read-out: Anti-HBV activity EC90. Here is the method:
The anti-HBV activity of the compounds was determined by treating the AD-38 cell line carrying wild type HBV under the control of tetracycline (see Ladner S. K., Otto M. J., Barker C. S., Zaifert K., Wang G. H., Guo J. T., Seeger C. & King R. W. Antimicrob. Agents Chemother. 1997, 41, 1715-20). Removal of tetracycline from the medium [Tet (−)] results in the production of HBV. The levels of HBV in the culture supernatant fluids from cells treated with the compounds were compared with that of the untreated controls. Control cultures with tetracycline [Tet (+)] were also maintained to determine the basal levels of HBV expression. 3TC was included as positive control.
The median effective concentrations (EC50) ranges of several of the compounds described herein against HBV are shown in Table 3: […]

Data set [4] in a line: Cellular toxicity assay in Vero cells. Conditions: African green monkey, read-out: Cytotoxicity. As to the method:
as §1

Where [5] appears, read: AD-38 cells, HBV in culture supernatant.

Take `C#CCNC(=O)C(=O)c1c(C)c(C(=O)Nc2ccc(F)c(C#N)c2)n(C)c1C` [Compound 7b, N-(3-cyano-4-fluorophenyl)-1,3,5-trimethyl-4-(2-oxo-2-(prop-2-yn-1-ylamino)acetyl)-1H-pyrrole-2-carboxamide]: the CC50 in data set [1] (CEM lymphoblastoid cells), in data set [2], in data set [3] (human PBM cells) and in data set [4] was > 100 µM in each case. In addition, the EC50 in the data set with wild type HBV (setting [5]) was 0.01 to 0.09 µM. For the same compound, the concentration for an effect of 90% (EC90) with wild type HBV (setting [5]) fell in the range of 0.1 to 0.9 µM.

For `C=CCn1cc(CNC(=O)C(=O)c2c(C)c(C(=O)Nc3ccc(F)c(F)c3)n(C)c2C)nn1` [Compound 8], the CC50 in data set [1] is 45.4 µM; in data set [2], 98.6 µM; in data set [3], 60.5 µM; in data set [4] it was > 100 µM. The EC50 with wild type HBV is 0.001 to 0.009 µM. In addition, the EC90 with wild type HBV lay within 0.01 to 0.09 µM.

With `C#CCNS(=O)(=O)c1cc(C(=O)Nc2ccc(F)c(F)c2)n(C)c1` [Compound 17, N-(3,4-Difluorophenyl)-1-methyl-4-(N-(prop-2-yn-1-yl)sulfamoyl)-1H-pyrrole-2-carboxamide], the CC50 in data set [1] (CEM lymphoblastoid cells) was 53 µM; in data set [3] (human PBM cells) it was > 100 µM; in data set [4], 41 µM. In addition, the half-maximal effective concentration (EC50) in the data set with wild type HBV (setting [5]) was in the range of 0.1 to 0.9 µM. Also, the 90% effect concentration (EC90) in the data set with wild type HBV (setting [5]) lay within 1 to 9 µM.

In the case of `C=CCNC(=O)C(=O)c1cc(C(=O)Nc2ccc(F)c(F)c2)n(C)c1` [Compound 25, 4-(2-(allylamino)-2-oxoacetyl)-N-(3,4-difluorophenyl)-1-methyl-1H-pyrrole-2-carboxamide], the CC50 was > 100 µM in data set [1] (CEM lymphoblastoid cells), > 100 µM in data set [2], > 100 µM in data set [3] (human PBM cells) and 68.1 µM in data set [4]. For the same compound, in the data set with wild type HBV (setting [5]), the 50% effective concentration (EC50) was 0.01 to 0.09 µM. In the data set on wild type HBV (setting [5]), the concentration for an effect of 90% (EC90) was in the range of 1 to 9 µM.

For `Cn1cc(C(=O)C(=O)Nc2nccs2)cc1C(=O)Nc1ccc(F)c(F)c1` [Compound 26, N-(3,4-difluorophenyl)-1-methyl-4-(2-oxo-2-(thiazol-2-ylamino)acetyl)-1H-pyrrole-2-carboxamide], the CC50 in data set [1] (CEM lymphoblastoid cells) is > 100 µM; in data set [2], > 100 µM; in data set [3] (human PBM cells) it was > 100 µM; in data set [4] it was 31.2 µM. Also, the EC50 in the data set on wild type HBV (setting [5]) was 0.1 to 0.9 µM. The 90% effect concentration (EC90) in the data set with wild type HBV (setting [5]) lay in the range of 1 to 9 µM.

As for `Cn1cc(C(=O)C(=O)NOC2CCCC2)cc1C(=O)Nc1ccc(F)c(F)c1` [Compound 27, 4-(2-((cyclopentyloxy)amino)-2-oxoacetyl)-N-(3,4-difluorophenyl)-1-methyl-1H-pyrrole-2-carboxamide], the CC50 in data set [1] (CEM lymphoblastoid cells) is 37.9 µM; in data set [2], > 100 µM; in data set [4] it was 80.1 µM. Besides, the half-maximal effective concentration (EC50) in the data set on wild type HBV (setting [5]) lay in the range of 0.01 to 0.09 µM. In the data set on wild type HBV (setting [5]), the EC90 was 1 to 9 µM.

With `Cn1cc(C(=O)C(=O)Nc2ccccc2)cc1C(=O)Nc1ccc(F)c(F)c1` [Compound 28, N-(3,4-difluorophenyl)-1-methyl-4-(2-oxo-2-(phenylamino)acetyl)-1H-pyrrole-2-carboxamide], the CC50 in data set [1] (CEM lymphoblastoid cells) is > 100 µM; in data set [2], > 100 µM; in data set [4], 13.4 µM. In addition, the EC50 in the data set on wild type HBV (setting [5]) lay in the range of 0.01 to 0.09 µM. For the same compound, the 90% effect concentration (EC90) in the data set on wild type HBV (setting [5]) is 1 to 9 µM.

In the case of `Cn1cc(C(=O)C(=O)NCC#N)cc1C(=O)Nc1ccc(F)c(F)c1` [Compound 30, 4-(2-((cyanomethyl)amino)-2-oxoacetyl)-N-(3,4-difluorophenyl)-1-methyl-1H-pyrrole-2-carboxamide], the CC50 in data set [1] (CEM lymphoblastoid cells) was > 100 µM; in data set [2], > 100 µM; in data set [4], 91.4 µM. The EC50 in the data set with wild type HBV (setting [5]) lay in the range of 1 to 9 µM. Besides, in the data set on wild type HBV (setting [5]), the EC90 fell in the range of 1 to 9 µM.

Consider `Cn1cc(C(=O)C(=O)N2CCOCC2)cc1C(=O)Nc1ccc(F)c(F)c1` [Compound 31, N-(3,4-difluorophenyl)-1-methyl-4-(2-morpholino-2-oxoacetyl)-1H-pyrrole-2-carboxamide], for which the CC50 in data set [1] (CEM lymphoblastoid cells) is > 100 µM; in data set [2] it was 93.9 µM; in data set [3] (human PBM cells) it was > 100 µM; in data set [4], 41.9 µM. In addition, the EC50 with wild type HBV (setting [5]) lay within 0.01 to 0.09 µM. The concentration for an effect of 90% (EC90) in the data set on wild type HBV (setting [5]) lay within 1 to 9 µM.

As for `Cn1cc(C(=O)C(=O)N2CC(F)(F)C2)cc1C(=O)Nc1ccc(F)c(F)c1` [Compound 32, 4-(2-(3,3-difluoroazetidin-1-yl)-2-oxoacetyl)-N-(3,4-difluorophenyl)-1-methyl-1H-pyrrole-2-carboxamide], the CC50 in data set [1] (CEM lymphoblastoid cells), in data set [2], in data set [3] (human PBM cells) and in data set [4] was > 100 µM each time. Besides, the EC50 in the data set on wild type HBV (setting [5]) was in the range of 1 to 9 µM. The EC90 with wild type HBV (setting [5]) was 1 to 9 µM.

On to `Cn1cc(NS(=O)(=O)c2ccccc2)cc1C(=O)Nc1ccc(F)c(F)c1` [Compound 36, N-(3,4-difluorophenyl)-1-methyl-4-(phenylsulfonamido)-1H-pyrrole-2-carboxamide], for which the CC50 was 36.7 µM in data set [1] (CEM lymphoblastoid cells), 43.5 µM in data set [2], 13.9 µM in data set [3] (human PBM cells) and 22.9 µM in data set [4]. Moreover, in the data set with wild type HBV (setting [5]), the 50% effective concentration (EC50) was in the range of 0.1 to 0.9 µM. For the same compound, in the data set on wild type HBV (setting [5]), the EC90 lay within 1 to 9 µM.

Take `Cc1c(C(=O)C(=O)NCc2c[nH]nn2)c(C)n(C)c1C(=O)Nc1ccc(F)c(F)c1` [Compound 38, 4-(2-(((1H-1,2,3-triazol-4-yl)methyl)amino)-2-oxoacetyl)-N-(3,4-difluorophenyl)-1,3,5-trimethyl-1H-pyrrole-2-carboxamide]: the CC50 in data set [1] (CEM lymphoblastoid cells) is 29 µM; in data set [2], 85 µM; in data set [3] (human PBM cells) it was > 100 µM; in data set [4] it was 45 µM. In addition, the EC50 in the data set on wild type HBV (setting [5]) is 0.001 to 0.009 µM. Also, the EC90 in the data set on wild type HBV (setting [5]) fell in the range of 0.1 to 0.9 µM.

Consider `Cc1c(C(=O)C(=O)Nc2ccccn2)c(C)n(C)c1C(=O)Nc1ccc(F)c(F)c1` [Compound 43, N-(3,4-difluorophenyl)-1,3,5-trimethyl-4-(2-oxo-2-(pyridin-2-ylamino)acetyl)-1H-pyrrole-2-carboxamide], for which the CC50 in data set [1] (CEM lymphoblastoid cells) was 50 µM; in data set [2], > 100 µM; in data set [3] (human PBM cells) it was > 100 µM; in data set [4] it was > 100 µM. The concentration giving a half-maximal response (EC50) in the data set with wild type HBV (setting [5]) was 0.01 to 0.09 µM. In addition, in the data set on wild type HBV (setting [5]), the 90% effect concentration (EC90) is 0.1 to 0.9 µM.

As for `Cc1c(C(=O)C(=O)N2CCN(C)CC2)c(C)n(C)c1C(=O)Nc1ccc(F)c(F)c1` [Compound 44, N-(3,4-difluorophenyl)-1,3,5-trimethyl-4-(2-(4-methylpiperazin-1-yl)-2-oxoacetyl)-1H-pyrrole-2-carboxamide], the CC50 was 17 µM in data set [1] (CEM lymphoblastoid cells), 90 µM in data set [2], 92 µM in data set [3] (human PBM cells) and > 100 µM in data set [4]. The EC50 in the data set with wild type HBV (setting [5]) fell in the range of 0.1 to 0.9 µM. For the same compound, in the data set on wild type HBV (setting [5]), the EC90 was 1 to 9 µM.

As for `CCN(CC)C(=O)C(=O)c1c(C)c(C(=O)Nc2ccc(F)c(F)c2)n(C)c1C` [Compound 45, 4-(2-(diethylamino)-2-oxoacetyl)-N-(3,4-difluorophenyl)-1,3,5-trimethyl-1H-pyrrole-2-carboxamide], the CC50 in data set [1] (CEM lymphoblastoid cells) is 36 µM; in data set [2], 75 µM; in data set [3] (human PBM cells), 90 µM; in data set [4], 47 µM. In addition, the EC50 with wild type HBV (setting [5]) is 0.1 to 0.9 µM. In addition, the EC90 with wild type HBV (setting [5]) fell in the range of 1 to 9 µM.

With `Cc1c(C(=O)C(=O)Nc2nc3ccccc3[nH]2)c(C)n(C)c1C(=O)Nc1ccc(F)c(F)c1` [Compound 46, 4-(2-((1H-benzo[d]imidazol-2-yl)amino)-2-oxoacetyl)-N-(3,4-difluorophenyl)-1,3,5-trimethyl-1H-pyrrole-2-carboxamide], the CC50 in data set [1] (CEM lymphoblastoid cells) was 38 µM; in data set [2], 7 µM; in data set [3] (human PBM cells) it was > 100 µM; in data set [4], 10 µM. Besides, the 50% effective concentration (EC50) in the data set on wild type HBV (setting [5]) is 0.1 to 0.9 µM. Further, the EC90 in the data set on wild type HBV (setting [5]) was 1 to 9 µM.

With `Cc1c(C(=O)C(=O)NCc2ccccn2)c(C)n(C)c1C(=O)Nc1ccc(F)c(F)c1` [Compound 47, N-(3,4-difluorophenyl)-1,3,5-trimethyl-4-(2-oxo-2-((pyridin-2-ylmethyl)amino)acetyl)-1H-pyrrole-2-carboxamide], the CC50 in data set [1] (CEM lymphoblastoid cells) is 47 µM; in data set [2], 35 µM; in data set [3] (human PBM cells) it was > 100 µM; in data set [4], 51 µM. Further, the half-maximal effective concentration (EC50) with wild type HBV (setting [5]) fell in the range of 0.01 to 0.09 µM. For the same compound, in the data set on wild type HBV (setting [5]), the concentration for an effect of 90% (EC90) was in the range of 0.1 to 0.9 µM.

With `C#CCNC(=O)C(=O)c1c(C)c(C(=O)Nc2ccc(OC(F)(F)F)cc2)n(C)c1C` [Compound 54, 1,3,5-trimethyl-4-(2-oxo-2-(prop-2-yn-1-ylamino)acetyl)-N-(4-(trifluoromethoxy)phenyl)-1H-pyrrole-2-carboxamide], the CC50 in data set [1] (CEM lymphoblastoid cells) came to 4 µM; in data set [3] (human PBM cells), 3 µM; in data set [4], 6 µM. Besides, the half-maximal effective concentration (EC50) with wild type HBV (setting [5]) lay in the range of 1 to 9 µM.
